Data from patent US9012460B2, “1-(2-phenoxymethylphenyl)piperazine compounds” (Theravance Biopharma R&D IP, LLC, priority 2010, dated 2015).

Columns and labels:
[1] = molecular target: T1, hNET (Homo sapiens, UniProt P23975); assay: hNET membrane radioligand binding assay (Assay 1); settings: 3H-nisoxetine, membranes from HEK-293 cells expressing hNET; read-out: NET pKi (converted)
T1 construct: expressed in transfected cells; host or cells: HEK-293
Method: (§1) Membrane radioligand binding assays were used to measure inhibition of labeled ligand (^3H-citalopram or ^3H-nisoxetine or ^3H-WIN35428) binding to membranes prepared from cells expressing the respective human recombinant transporter (hSERT or hNET or hDAT) in order to determine the pKi values of test compounds at the transporters.
(§2) Recombinant human embryonic kidney (HEK-293) derived cell lines stably transfected with hSERT or hNET, respectively, were grown in DMEM medium supplemented with 10% dialyzed FBS (for hSERT) or FBS (for hNET), 100 μg/ml penicillin, 100 μg/ml streptomycin, 2 mM L-glutamine and 250 μg/ml of the aminoglycoside antibiotic G418, in a 5% CO2 humidified incubator at 37° C. When cultures reached 80% confluence, the cells were washed thoroughly in PBS (without Ca^2+ and Mg^2+) and lifted with 5 mM EDTA in PBS. Cells were pelleted by centrifugation, resuspended in lysis buffer (10 mM Tris-HCl, pH7.5 containing 1 mM EDTA), homogenized, pelleted by centrifugation, then resuspended in 50 mM Tris-HCl, pH 7.5 and 10% sucrose at 4° C. Protein concentration of the membrane suspension was determined using a Bio-Rad Bradford Protein Assay kit. Membranes were snap frozen and stored at −80° C. Chinese hamster ovary membranes expressing hDAT (CHO-DAT) were purchased from PerkinElmer and stored at −80° C.
(§3) Binding assays were performed in a 96-well assay plate in a total volume of 200 μL assay buffer (50 mM Tris-HCl, 120 mM NaCl, 5 mM KCl, pH 7.4) with 0.5, 1, and 3 μg membrane protein, for SERT, NET and DAT, respectively.
(§4) Stock solutions (10 mM in DMSO) of test compound were prepared and serial dilutions made using Dilution Buffer (50 mM Tris-HCl, 120 mM NaCl, 5 mM KCl, pH 7.4, 0.1% BSA, 400 μM ascorbic acid).
(§5) Following a 60 minute incubation at 22° C. (or a period sufficient to reach equilibrium), the membranes were harvested by rapid filtration over a 96-well UniFilter GF/B plate, pretreated with 0.3% polyethyleneimine, and washed 6 times with 300 μl wash buffer (50 mM Tris-HCl, 0.9% NaCl, pH 7.5 at 4° C.). Plates were dried overnight at room temperature, ˜45 μl of MicroScint™-20 (Perkin Elmer) added and bound radioactivity quantitated via liquid scintillation spectroscopy. Inhibition curves and saturation isotherms were analyzed using GraphPad Prism Software package (GraphPad Software, Inc., San Diego, Calif.). IC50 values were generated from concentration response curves using the Sigmoidal Dose Response (variable slope) algorithm in Prism GraphPad. Kd and Bmax values for the radioligand were generated from saturation isotherms using the Saturation Binding Global Fit algorithm in Prism GraphPad. pKi (negative decadic logarithm of Ki) values for test compounds were calculated from the best-fit IC50 values, and the Kd value of the radioligand, using the Cheng-Prusoff equation (Cheng & Prusoff (1973) Biochem. Pharmacol. 22(23):3099-3108): Ki=IC50/(1+[L]/Kd), where [L]=concentration radioligand.

[2] = molecular target: T2, hSERT (Homo sapiens, UniProt P31645); assay: hSERT membrane radioligand binding assay (Assay 1); settings: 3H-citalopram, membranes from HEK-293 cells expressing hSERT; read-out: SERT pKi (converted)
T2 construct: expressed in transfected cells; host or cells: HEK-293
Method: as §1, §2, §3, §4, §5

[3] = molecular target: T1, hNET; assay: hNET neurotransmitter uptake assay (Assay 2) or fluorescence-based assay of Tsuruda et al.; assay type: cell-based; settings: norepinephrine reuptake inhibition; asterisk = fluorescence-based assay (Tsuruda et al. 2010); read-out: NET pIC50 (converted)
Method: (§6) Neurotransmitter uptake assays were used to measure inhibition of ^3H-serotonin (^3H-5-HT), ^3H-norepinephrine (^3H-NE), and ^3H-dopamine (^3H-DA) uptake into cells expressing the respective transporter (hSERT, hNET or hDAT) in order to determine the pIC50 values of test compounds at the transporters.
(§7) HEK-293 derived cell lines stably-transfected with hSERT, hNET, or hDAT, respectively, were grown in DMEM medium supplemented with 10% dialyzed FBS (for hSERT) or FBS (for hNET and hDAT), 100 μg/ml penicillin, 100 μg/ml streptomycin, 2 mM L-glutamine and 250 μg/ml of the aminoglycoside antibiotic G418 (for hSERT and hNET) or 800 ug/ml (for hDAT), in a 5% CO2 humidified incubator at 37° C. When cultures reached 80% confluence, the cells were washed thoroughly in PBS (without Ca^2+and Mg^2+) and lifted with 5 mM EDTA in PBS. […]
(§8) Following a 10 minute incubation, at 37° C., with radioligand, the cells were harvested by rapid filtration over a 96-well UniFilter GF/B plate, pretreated with 1% BSA, and washed 6 times with 650 μl wash buffer (ice cold PBS). Plates were dried overnight at 37° C., ˜45 μl of MicroScint™-20 (Perkin Elmer) added and incorporated radioactivity quantitated via liquid scintillation spectroscopy. Inhibition curves were analyzed using GraphPad Prism Software package (GraphPad Software, Inc., San Diego, Calif.). […]

[4] = molecular target: T2, hSERT; assay: hSERT neurotransmitter uptake assay (Assay 2) or fluorescence-based assay of Tsuruda et al.; assay type: cell-based; settings: serotonin reuptake inhibition; asterisk = fluorescence-based assay (Tsuruda et al. 2010); read-out: SERT pIC50 (converted)
Method: as §6, §7, §8

T1 sequence (P23975 whole entry): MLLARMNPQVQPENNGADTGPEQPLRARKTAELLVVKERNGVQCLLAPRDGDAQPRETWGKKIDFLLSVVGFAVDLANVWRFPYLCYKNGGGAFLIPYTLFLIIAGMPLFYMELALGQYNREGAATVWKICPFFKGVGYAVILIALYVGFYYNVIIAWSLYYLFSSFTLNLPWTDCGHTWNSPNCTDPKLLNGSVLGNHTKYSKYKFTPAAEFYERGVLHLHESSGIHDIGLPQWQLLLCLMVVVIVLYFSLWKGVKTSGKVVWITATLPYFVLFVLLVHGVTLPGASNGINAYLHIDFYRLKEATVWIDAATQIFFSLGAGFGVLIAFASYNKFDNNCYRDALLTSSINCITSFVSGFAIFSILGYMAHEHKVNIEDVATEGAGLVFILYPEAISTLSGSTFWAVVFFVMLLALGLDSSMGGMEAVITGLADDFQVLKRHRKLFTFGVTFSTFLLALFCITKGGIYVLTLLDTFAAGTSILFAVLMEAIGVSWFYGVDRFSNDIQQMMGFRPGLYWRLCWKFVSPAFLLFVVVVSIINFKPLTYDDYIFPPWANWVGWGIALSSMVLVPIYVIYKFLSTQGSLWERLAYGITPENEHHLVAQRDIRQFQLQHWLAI
T2 sequence (P31645 whole entry): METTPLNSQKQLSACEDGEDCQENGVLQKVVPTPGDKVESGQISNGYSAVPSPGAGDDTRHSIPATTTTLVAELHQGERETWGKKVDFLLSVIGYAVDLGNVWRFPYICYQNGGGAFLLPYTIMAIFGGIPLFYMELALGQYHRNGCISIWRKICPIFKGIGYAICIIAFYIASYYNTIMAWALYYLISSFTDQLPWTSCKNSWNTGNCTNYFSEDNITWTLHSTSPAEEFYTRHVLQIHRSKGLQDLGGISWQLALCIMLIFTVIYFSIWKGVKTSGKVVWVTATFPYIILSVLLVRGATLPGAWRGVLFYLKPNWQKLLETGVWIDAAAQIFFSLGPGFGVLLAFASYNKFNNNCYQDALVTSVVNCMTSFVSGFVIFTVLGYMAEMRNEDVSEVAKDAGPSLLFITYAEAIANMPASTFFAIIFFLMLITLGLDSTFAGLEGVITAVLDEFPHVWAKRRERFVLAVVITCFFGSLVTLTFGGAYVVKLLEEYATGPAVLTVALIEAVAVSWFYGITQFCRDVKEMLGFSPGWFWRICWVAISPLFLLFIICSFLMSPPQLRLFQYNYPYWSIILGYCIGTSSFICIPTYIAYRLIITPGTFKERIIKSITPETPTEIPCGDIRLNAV

| SMILES | Ki [1] [nM] | Ki [2] [nM] | IC50 [3] [nM] | IC50 [4] [nM] |
| --- | --- | --- | --- | --- |
| Fc1ccc(Br)cc1OCc1ccccc1N1CCNCC1 [Example 2-25] | ≤ 100 | ≤ 100 | – | – |
| Cc1ccc(OCc2ccccc2N2CCNCC2)cc1 [Example 2-17] | ≤ 10000 | ≤ 10000 | – | – |
| CC(C)(C)c1cccc(OCc2ccccc2N2CCNCC2)c1 [Example 2-15] | ≤ 10000 | ≤ 10000 | – | – |
| Clc1ccc(Cl)c(OCc2ccccc2N2CCNCC2)c1 [Example 2-26] | ≤ 10000 | ≤ 100 | – | – |
| Fc1ccc(OCc2ccccc2N2CCNCC2)cc1F [Example 2-33] | ≤ 100 | ≤ 100 | – | – |
| c1ccc(Oc2ccccc2OCc2ccccc2N2CCNCC2)cc1 [Example 2-10] | ≤ 100 | ≤ 10000 | – | – |
| COc1ccccc1OCc1ccccc1N1CCNCC1 [Example 2-7] | ≤ 10000 | ≤ 100 | – | – |
| c1ccc(Cc2ccccc2OCc2ccccc2N2CCNCC2)cc1 [Example 2-9] | ≤ 10000 | ≤ 100 | – | – |
| Clc1cc(Cl)c(OCc2ccccc2N2CCNCC2)cc1Cl [Example 2-39] | ≤ 100 | ≤ 100 | – | – |
| Fc1cc(OCc2ccccc2N2CCNCC2)ccc1Cl [Example 2-34] | ≤ 100 | ≤ 100 | – | – |
| c1ccc(-c2ccccc2OCc2ccccc2N2CCNCC2)cc1 [Example 2-8] | ≤ 10000 | ≤ 100 | – | – |
| N#Cc1ccc(Cl)cc1OCc1ccccc1N1CCNCC1 [Example 2-32] | ≤ 10000 | ≤ 100 | – | – |
| Fc1cc(F)cc(OCc2ccccc2N2CCNCC2)c1 [Example 2-36] | ≤ 10000 | ≤ 100 | – | – |
| CC(C)c1cccc(C(C)C)c1OCc1ccccc1N1CCNCC1 [Example 2-38] | ≤ 10000 | ≤ 10000 | – | – |
| Clc1cccc(OCc2ccccc2N2CCNCC2)c1Cl [Example 2-19] | ≤ 10000 | ≤ 100 | – | – |
| COc1ccc(Cl)cc1OCc1ccccc1N1CCNCC1 [Example 2-31] | ≤ 10000 | ≤ 100 | – | – |
| Fc1ccc(Br)c(OCc2ccccc2N2CCNCC2)c1 [Example 2-28] | ≤ 10000 | ≤ 100 | – | – |
| Clc1cc(Cl)c(Cl)c(OCc2ccccc2N2CCNCC2)c1Cl [Example 2-40] | ≤ 10000 | ≤ 100 | – | – |
| c1ccc(COc2ccccc2OCc2ccccc2N2CCNCC2)cc1 [Example 2-11] | ≤ 10000 | ≤ 10000 | – | – |
| CC(C)c1ccccc1OCc1ccccc1N1CCNCC1 [Example 2-5] | ≤ 10000 | ≤ 100 | – | – |
| Clc1ccccc1OCc1ccccc1N1CCNCC1 [Example 2-2] | ≤ 10000 | ≤ 100 | – | – |

| SMILES | Ki [1] [nM] | Ki [2] [nM] | IC50 [3] [nM] | IC50 [4] [nM] |
| --- | --- | --- | --- | --- |
| Cc1cccc(OCc2ccccc2N2CCNCC2)c1 [Example 2-14] | ≤ 10000 | ≤ 100 | – | – |
| Cc1c(F)cccc1OCc1ccccc1N1CCNCC1 [Example 2-20] | ≤ 10000 | ≤ 100 | – | – |
| N#Cc1c(F)cccc1OCc1ccccc1N1CCNCC1 [Example 2-22] | ≤ 10000 | ≤ 100 | – | – |
| Cc1ccc(Cl)cc1OCc1ccccc1N1CCNCC1 [Example 2-30] | ≤ 100 | ≤ 100 | – | – |
| Fc1c(Cl)cccc1OCc1ccccc1N1CCNCC1 [Example 2-18] | ≤ 10000 | ≤ 100 | – | – |
| CCc1ccccc1OCc1ccccc1N1CCNCC1 [Example 2-6] | ≤ 10000 | ≤ 100 | – | – |
| Fc1ccc(Cl)c(OCc2ccccc2N2CCNCC2)c1 [Example 2-27] | ≤ 10000 | ≤ 100 | – | – |
| Fc1ccc(Cl)cc1OCc1ccccc1N1CCNCC1 [Example 2-24] | ≤ 10000 | ≤ 100 | – | – |
| Ic1ccccc1OCc1ccccc1N1CCNCC1 [Example 2-3] | ≤ 100 | ≤ 100 | – | – |
| Clc1ccc(OCc2ccccc2N2CCNCC2)cc1Cl [Example 2-35] | ≤ 100 | ≤ 100 | – | – |
| Cc1ccc(F)cc1OCc1ccccc1N1CCNCC1 [Example 2-29] | ≤ 10000 | ≤ 100 | – | – |
| Ic1cccc(OCc2ccccc2N2CCNCC2)c1 [Example 1, 1-[2-(3-Iodophenoxymethyl)phenyl]piperazine] | ≤ 100 | ≤ 100 | – | – |
| Cc1c(Cl)cccc1OCc1ccccc1N1CCNCC1 [Example 2-21] | ≤ 100 | ≤ 100 | – | – |
| Cc1ccccc1OCc1ccccc1N1CCNCC1 [Example 2-4] | ≤ 10000 | ≤ 100 | – | – |
| COc1cccc(OCc2ccccc2N2CCNCC2)c1 [Example 2-16] | ≤ 10000 | ≤ 100 | – | – |
| Fc1ccc(F)c(OCc2ccccc2N2CCNCC2)c1 [Example 2-23] | ≤ 10000 | ≤ 100 | – | – |
| Fc1ccccc1OCc1ccccc1N1CCNCC1 [Example 2-1] | ≤ 100 | ≤ 10000 | – | – |
| Clc1cc(Cl)cc(OCc2ccccc2N2CCNCC2)c1 [Example 2-37] | ≤ 10000 | ≤ 100 | – | – |
| Brc1cccc(OCc2ccccc2N2CCNCC2)c1 [Example 2-13] | ≤ 100 | ≤ 100 | – | – |
| Clc1cccc(OCc2ccccc2N2CCNCC2)c1 [Example 2-12] | ≤ 100 | ≤ 100 | ≤ 100 | ≤ 100 |
